Reference: US20150366191A1, “ANTIMICROBIAL METHOD BY BLOCKING MANNITOL METABOLISM AND ANTIMICROBIAL COMPOSITION CONTAINING MANNITOL METABOLIC INHIBITOR” (Research & Business FOUNDATION SUNGKYUNKWAN UNIVERSITY, priority 2014, published 2015)

Assays:
M1PDH = M1PDH (Staphylococcus aureus, UniProt P99140); experiment: in vitro M1PDH enzymatic assay (NADH optical density at 340 nm); format: biochemical; settings: fructose-6-phosphate and NADH, or Mtl-1-phosphate and NAD as substrates
Excerpt: To measure an in vitro M1PDH enzyme activity, a change in concentration of NADH according to an enzyme activity was observed through a change in optical density at 340 nm using fructose-6-phosphate and NADH, or Mtl-1-phosphate and NAD as substrates.

mannitol metabolism = mannitol metabolism inhibition, phenol red colour change in mannitol medium; format: cell-based; settings: medium containing 27 mM of mannitol and phenol red
Method: When bacteria were cultured in a medium containing 27 mM of mannitol and phenol red, the mannitol was metabolized to produce fructose and reduce pH of the medium, thereby changing a color of the phenol red to yellow. However, since the phenol red was not changed in color to keep the medium red by inhibiting the mannitol metabolism, an inhibitor showing an mannitol metabolism inhibitory effect was found using such a principle (FIG. 11A).

bacteria [1] = experiment: chemical toxicity assay (growth of bacteria); format: cell-based
bacteria [2] = experiment: viability of bacteria by optical density at 600 nm; format: cell-based; settings: change in concentration of the compound; OD 600 nm
[3] = tested on: bacteria infected into macrophages; experiment: macrophage infection model, viability of bacteria in the presence of mannitol; format: cell-based, Staphylococcus aureus; settings: compound and mannitol used together; after 18 hours of infection
Excerpt: In addition, to confirm an inhibitory effect in a host cell, a macrophage infection model was used.

SMILES: O=C(NC(=O)c1ccc(Oc2ccc(Cl)cc2)c([N+](=O)O)c1)Nc1ccccc1C(F)(F)F [Compound 31, N-[4-(4-chlorophenoxy)-3-nitrobenzoyl]-N′-[2-(trifluoromethyl)phenyl]urea]
- inhibition of M1PDH activity (M1PDH): inhibited M1PDH activity
- mannitol metabolism inhibitory effect (mannitol metabolism): inhibiting only the mannitol metabolism
- inhibition of growth of bacteria (bacteria [1]): not inhibiting growth of bacteria

SMILES: COc1nc(NC(=O)NS(=O)(=O)c2ccccc2C(F)(F)F)nc(C23CC4CC(CC(C4)C2)C3)n1 [Compound 26, 2-(1-adamantyl)-4-methoxy-6-{[({[2-(trifluoromethyl)phenyl]sulfonyl}amino)carbonyl]amino}-1,3,5-triazine]
- inhibition of M1PDH activity (M1PDH): inhibited M1PDH activity
- mannitol metabolism inhibitory effect (mannitol metabolism): inhibiting only the mannitol metabolism
- inhibition of growth of bacteria (bacteria [1]): not inhibiting growth of bacteria

SMILES: Nc1c(-c2ccc3ccccc3n2)c2ccc([N+](=O)[O-])cc2c(=O)n1Cc1ccccc1 [Compound 27, 3-amino-2-benzyl-7-nitro-4-(2-quinolyl)-1,2-dihydroisoquinolin-1-one]
- inhibition of M1PDH activity (M1PDH): inhibited M1PDH activity
- mannitol metabolism inhibitory effect (mannitol metabolism): inhibiting only the mannitol metabolism
- inhibition of growth of bacteria (bacteria [1]): not inhibiting growth of bacteria

SMILES: Cc1c(O)c(O)cc2c1CC=C1[C@@]2(C)CC[C@@]2(C)C3C[C@](C)(C(=O)O)CC[C@]3(C)CC[C@]12C (stereo partly drawn) [Compound 5, (2R,4aS,6aS,6aS,14aS,14bR)-10,11-dihydroxy-2,4a,6a,6a,9,14a-hexamethyl-3,4,5,6,8,13,14,14b-octahydro-1H-picene-2-carboxylic acid]
- inhibition of M1PDH activity (M1PDH): inhibiting an activity of M1PDH
- viability of bacteria (bacteria [2]): decrease in viability
- SA viability in macrophages [3]: decrease in SA viability in a macrophage

SMILES: Cc1nn(-c2ccccc2)c2c1C(c1ccc([N+](=O)[O-])cc1)C(C#N)=C(N)O2 (stereo not drawn) [Compound 10, 6-amino-3-methyl-4-(4-nitrophenyl)-1-phenyl-1,4-dihydropyrano[2,3-c]pyrazole-5-carbonitrile]
- inhibition of M1PDH activity (M1PDH): inhibited M1PDH activity
- mannitol metabolism inhibitory effect (mannitol metabolism): inhibiting only the mannitol metabolism
- inhibition of growth of bacteria (bacteria [1]): not inhibiting growth of bacteria
